The values that follow come from patent US10414774B2, “Compound useful for altering the levels of bile acids for the treatment of diabetes and cardiometabolc disease” (Merck Sharp & Dohme Corp., priority 2016, dated 2019).

The assay has as its target T1, Human CYP8B1 (Homo sapiens, UniProt Q9UNU6).
T1 sequence (Q9UNU6 1-501): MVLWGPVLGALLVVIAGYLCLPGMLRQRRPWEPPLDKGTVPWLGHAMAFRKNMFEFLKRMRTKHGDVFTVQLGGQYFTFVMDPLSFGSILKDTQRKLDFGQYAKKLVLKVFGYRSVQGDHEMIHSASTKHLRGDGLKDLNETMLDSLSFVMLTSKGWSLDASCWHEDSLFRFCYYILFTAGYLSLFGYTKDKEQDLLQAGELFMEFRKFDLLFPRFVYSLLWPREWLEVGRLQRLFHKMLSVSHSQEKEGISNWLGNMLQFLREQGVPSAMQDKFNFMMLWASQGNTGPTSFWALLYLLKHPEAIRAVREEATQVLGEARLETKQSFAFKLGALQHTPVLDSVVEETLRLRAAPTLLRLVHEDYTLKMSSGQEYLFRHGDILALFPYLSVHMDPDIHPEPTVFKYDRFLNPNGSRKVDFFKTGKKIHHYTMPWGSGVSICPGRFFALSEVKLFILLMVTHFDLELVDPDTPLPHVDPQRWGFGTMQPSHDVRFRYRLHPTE
Briefly: Human CYP8B1 Liver Microsome Assay. The following applies: Human CYP8B1 IC50, human liver microsomes; substrate 7a-hydroxy-4-cholesten-3-one, NADPH; RapidFire MS detection of 7α,12α-dihydroxy-4-cholesten-3-one. (In general: Liver microsomes are a subcellular fraction often used to study metabolism.)
By IC50 is commonly meant the midpoint of a concentration-inhibition curve. A low value points to inhibition by little substance. Compound `CC[C@@H]1CN(c2c(C#N)cnc3ccc(Cl)cc23)CC[C@@H]1C(=O)N1CCn2c(nnc2C(F)(F)F)C1` [Example 75b, 6-chloro-4-[(3S,4S)-3-ethyl-4-{[3-(trifluoromethyl)-5,6-dihydro[1,2,4]triazolo[4,3-a]pyrazin-7(8H)-yl]carbonyl}piperidin-1-yl]quinoline-3-carbonitrile] registered an IC50 of 2.8 nM. This counts as single-digit nanomolar. In turn, `N#Cc1cnc2ccc(Cl)cc2c1N1CC[C@@H](C(=O)N2CCn3c(nnc3C(F)(F)F)C2)[C@@H](C2CC2)C1` [Example 76a, 6-chloro-4-[(3R,4R)-3-cyclopropyl-4-{[3-(trifluoromethyl)-5,6-dihydro[1,2,4]triazolo[4,3-a]pyrazin-7(8H)-yl]carbonyl}piperidin-1-yl]quinoline-3-carbonitrile] came in with a 50% inhibitory concentration (IC50) of 1320 nM. The result for `N#Cc1cnc2ccc(Cl)cc2c1N1CC[C@H](C(=O)N2CCn3c(nnc3C(F)(F)F)C2)[C@H](C2CC2)C1` [Example 76c, 6-chloro-4-[(3S,4S)-3-cyclopropyl-4-{[3-(trifluoromethyl)-5,6-dihydro[1,2,4]triazolo[4,3-a]pyrazin-7(8H)-yl]carbonyl}piperidin-1-yl]quinoline-3-carbonitrile] reads 0.29 nM.

As for `COc1ccc2c(N3CC[C@@H](C(=O)N4CCn5c(nnc5C(F)(F)F)C4)[C@@H](C4CC4)C3)c(C#N)cnc2c1F` [Example 77a, 4-[(3R,4R)-3-cyclopropyl-4-{[3-(trifluoromethyl)-5,6-dihydro[1,2,4]triazolo[4,3-a]pyrazin-7(8H)-yl]carbonyl}piperidin-1-yl]-8-fluoro-7-methoxyquinoline-3-carbonitrile], it took 231 nM to reach half-maximal inhibition (IC50).

Compound `COc1ccc2c(N3CC[C@H](C(=O)N4CCn5c(nnc5C(F)(F)F)C4)[C@H](C4CC4)C3)c(C#N)cnc2c1F` [Example 77b, 4-[(3S,4S)-3-cyclopropyl-4-{[3-(trifluoromethyl)-5,6-dihydro[1,2,4]triazolo[4,3-a]pyrazin-7(8H)-yl]carbonyl}piperidin-1-yl]-8-fluoro-7-methoxyquinoline-3-carbonitrile] had an IC50 of 1.8 nM. The result for `C[C@@H]1CN(c2c(C#N)cnc3cc(C(C)(F)F)ccc23)CC[C@@H]1C(=O)N1CCn2c(nnc2C(F)(F)F)C1` [Example 78, 7-(1,1-difluoroethyl)-4-[(3S,4S)-3-methyl-4-{[3-(trifluoromethyl)-5,6-dihydro[1,2,4]triazolo[4,3-a]pyrazin-7(8H)-yl]carbonyl}piperidin-1-yl]quinoline-3-carbonitrile] reads 1 nM; that for `C[C@@H]1CN(c2c(C#N)cnc3ccccc23)CC[C@@H]1C(=O)N1CCn2c(nnc2C(F)(F)F)C1` [Example 79, 4-[(3S,4S)-3-methyl-4-{[3-(trifluoromethyl)-5,6-dihydro[1,2,4]triazolo[4,3-a]pyrazin-7(8H)-yl]carbonyl}piperidin-1-yl]quinoline-3-carbonitrile], 1.6 nM; that for `[2H]C([2H])([2H])Oc1ccc2c(N3CC[C@H](C(=O)N4CCn5c(nnc5C(F)(F)F)C4)[C@H](C)C3)c(C#N)cnc2c1` [Example 80, 7-[(^2H3)methyloxy]-4-[(3S,4S)-3-methyl-4-{[3-(trifluoromethyl)-5,6-dihydro[1,2,4]triazolo[4,3-a]pyrazin-7(8H)-yl]carbonyl}piperidin-1-yl]quinoline-3-carbonitrile], 0.35 nM. The result for `COc1ccc2c(N3CC[C@H](C(=O)N4Cc5nnc(C(F)(F)F)n5C(C)(C)C4)[C@H](C)C3)c(C#N)cnc2c1F` [Example 82, 4-((3S,4S)-4-(5,5-dimethyl-3-(trifluoromethyl)-5,6,7,8-tetrahydro-[1,2,4]triazolo[4,3-a]pyrazine-7-carbonyl)-3-methylpiperidin-1-yl)-8-fluoro-7-methoxyquinoline-3-carbonitrile] reads 58 nM. The result for `COc1ccc2c(N3C[C@@H](C)N(C(=O)N4CCn5c(nnc5C(F)(F)F)C4)[C@H](C)C3)c(C#N)cnc2c1` [Example 83a, 4-((3R,5R)-3,5-dimethyl-4-(3-(trifluoromethyl)-5,6,7,8-tetrahydro-[1,2,4]triazolo[4,3-a]pyrazine-7-carbonyl)piperazin-1-yl)-7-methoxyquinoline-3-carbonitrile] reads 11.3 nM; that for `COc1ccc2c(N3C[C@@H](C)N(C(=O)N4CCn5c(nnc5C(F)(F)F)C4)[C@@H](C)C3)c(C#N)cnc2c1` [Example 83b, 4-((3S,5R)-3,5-dimethyl-4-(3-(trifluoromethyl)-5,6,7,8-tetrahydro-[1,2,4]triazolo[4,3-a]pyrazine-7-carbonyl)piperazin-1-yl)-7-methoxyquinoline-3-carbonitrile], 987 nM; that for `COc1ccc2c(N3CCC(C(=O)N4CCn5c(C)nnc5C4)C(C)C3)c(C#N)cnc2c1` (centres unmarked) [Example 84, 7-methoxy-4-{3-methyl-4-[(3-methyl-5,6-dihydro[1,2,4]triazolo[4,3-a]pyrazin-7(8H)-yl)carbonyl]piperidin-1-yl}quinoline-3-carbonitrile], 3.3 nM. In turn, `C[C@@H]1CN(c2c(C#N)cnc3c2CCN(C(=O)OC2(C)CC2)C3)CC[C@@H]1C(=O)N1CCn2c(nnc2C2CC2)C1` [Example 85, 1-methylcyclopropyl 3-cyano-4-((3S,4S)-4-(3-cyclopropyl-5,6,7,8-tetrahydro-[1,2,4]triazolo[4,3-a]pyrazine-7-carbonyl)-3-methylpiperidin-1-yl)-5,6-dihydro-1,7-naphthyridine-7(8H)-carboxylate] yielded an IC50 of 2 nM.

In turn, `C[C@@H]1CN(c2c(C#N)cnc3c(F)cc(C4CC4)cc23)CC[C@@H]1C(=O)N1CCn2c(nnc2C(F)(F)F)C1` [Example 86, 6-cyclopropyl-8-fluoro-4-((3S,4S)-3-methyl-4-(3-(trifluoromethyl)-5,6,7,8-tetrahydro-[1,2,4]triazolo[4,3-a]pyrazine-7-carbonyl)piperidin-1-yl)quinoline-3-carbonitrile] came in with an IC50 of 0.4 nM.

Compound `C[C@@H]1CN(c2c(C#N)cnc3c(F)cc(C4CCC4)cc23)CC[C@@H]1C(=O)N1CCn2c(nnc2C(F)(F)F)C1` [Example 87, 6-cyclobutyl-8-fluoro-4-((3S,4S)-3-methyl-4-(3-(trifluoromethyl)-5,6,7,8-tetrahydro-[1,2,4]triazolo[4,3-a]pyrazine-7-carbonyl)piperidin-1-yl) quinoline-3-carbonitrile] displayed an IC50 of 0.3 nM.

Take `C[C@@H]1CN(c2c(C#N)cnc3c(F)cc(C(F)F)cc23)CC[C@@H]1C(=O)N1CCn2c(nnc2C(F)(F)F)C1` [Example 88, 6-(difluoromethyl)-8-fluoro-4-((3S,4S)-3-methyl-4-(3-(trifluoromethyl)-5,6,7,8-tetrahydro-[1,2,4]triazolo[4,3-a]pyrazine-7-carbonyl)piperidin-1-yl)quinoline-3-carbonitrile]: half-maximal inhibition (IC50) required 0.7 nM. Then `C[C@@H]1CN(c2c(C#N)cnc3cc(-c4ncco4)ccc23)CC[C@@H]1C(=O)N1CCn2c(nnc2C(F)(F)F)C1` [Example 89, 4-((3S,4S)-3-methyl-4-(3-(trifluoromethyl)-5,6,7,8-tetrahydro-[1,2,4]triazolo[4,3-a]pyrazine-7-carbonyl)piperidin-1-yl)-7-(oxazol-2-yl)quinoline-3-carbonitrile], with 0.4 nM; and `C[C@@H]1CN(c2c(C#N)cnc3cc(-c4ccccc4)ccc23)CC[C@@H]1C(=O)N1CCn2c(nnc2C(F)(F)F)C1` [Example 90, 4-((3S,4S)-3-methyl-4-(3-(trifluoromethyl)-5,6,7,8-tetrahydro-[1,2,4]triazolo[4,3-a]pyrazine-7-carbonyl)piperidin-1-yl)-7-phenylquinoline-3-carbonitrile], with 0.2 nM; and `Cc1nc2ccc(Cl)cc2c(N2CC[C@H](C(=O)N3CCn4cccc4C3)[C@H](C)C2)c1C#N` [Example 91, 6-chloro-4-[(3S,4S)-4-(3,4-dihydropyrrolo[1,2-a]pyrazin-2(1H)-ylcarbonyl)-3-methylpiperidin-1-yl]-2-methylquinoline-3-carbonitrile], with 5.8 nM. The compound `Cc1nc2ccc(Cl)cc2c(N2CC[C@H](C(=O)N3CCc4n[nH]c(C(F)(F)F)c4C3)[C@H](C)C2)c1C#N` [Example 92, 6-chloro-2-methyl-4-[(3S,4S)-3-methyl-4-{[3-(trifluoromethyl)-2,4,6,7-tetrahydro-5H-pyrazolo[4,3-c]pyridin-5-yl]carbonyl}piperidin-1-yl]quinoline-3-carbonitrile] had an IC50 of 35 nM. The result for `Cc1nc2ccc(Cl)cc2c(N2CC[C@H](C(=O)N3CCc4c(n[nH]c4C(F)(F)F)C3)[C@H](C)C2)c1C#N` [Example 93, 6-chloro-2-methyl-4-[(3S,4S)-3-methyl-4-{[3-(trifluoromethyl)-2,4,5,7-tetrahydro-6H-pyrazolo[3,4-c]pyridin-6-yl]carbonyl}piperidin-1-yl]quinoline-3-carbonitrile] reads 28 nM; that for `Cc1nc2ccc(Cl)cc2c(N2CC[C@H](C(=O)N3CCc4[nH]ncc4C3)[C@H](C)C2)c1C#N` [Example 95, 6-chloro-2-methyl-4-[(3S,4S)-3-methyl-4-(1,4,6,7-tetrahydro-5H-pyrazolo[4,3-c]pyridin-5-ylcarbonyl)piperidin-1-yl]quinoline-3-carbonitrile], 17 nM; that for `Cc1nc2ccc(Cl)cc2c(N2CC[C@H](C(=O)N3CCn4nccc4C3)[C@H](C)C2)c1C#N` [Example 96, 6-chloro-4-[(3S,4S)-4-(6,7-dihydropyrazolo[1,5-a]pyrazin-5(4H)-ylcarbonyl)-3-methylpiperidin-1-yl]-2-methylquinoline-3-carbonitrile], 8.6 nM.
